Experiments:
[1] = tested on: P. falciparum Pf3D70087/N9; assay: In vivo efficacy, standard 4-day test in humanized mouse model of P. falciparum malaria; parameters: species or system NSG mice engrafted with human erythrocytes; conditions: 50 mg/kg orally, once a day for 4 days, from day 3 after infection; by the seventh day
Description: NOD scid gamma (NSG) mice were intravenously engrafted with human red blood cells (hRBCs) daily until the percentage of hRBCs reached ~50%, at which point the mice were infected with 2 × 10^7 P. falciparum–infected erythrocytes.
Peripheral blood from P. falciparum–infected mice was stained with TER-119-phycoerythrin (marker of murine erythrocytes) and SYTO-16 (nucleic acid dye) and then analyzed by flow cytometry (FACSCalibur, BD).
Plasmodium falciparum-infected erythrocytes (P. falciparum Pf3D70087/N9).
The mice were obtained from Charles River Labs, bred specifically for
research and certified pathogen free.
NSG mice were engrafted daily with human red blood cells intravenously injected in a final
volume of 0.7 ml (50% hematocrit). Mice were engrafted during two weeks prior to P. falciparum
infection, mice achieve around 60% of human red blood cells in mice peripheral blood.
P. falciparum infections were performed by intravenous inoculation. All mice were randomly
assigned to their corresponding treatment.
mg/kg per day for four consecutive days. […] In all cases, parasitemia was assessed in samples from peripheral blood obtained at days 3, 4, 5, 6, and 7 after infection. Fresh samples of peripheral blood from P. falciparum-infected mice were stained with TER-119-Phycoerythrine (marker of murine erythrocytes) and SYTO-16 (nucleic acid dye) and then analyzed by flow cytometry (FACSCalibur, BD).

[2] = Time course stability to conditions of varying pH (mass spectrometric assay); format: physicochemical; conditions: aqueous buffers pH 2-7, room temperature, 10 min to 16 h; stable down to pH 4
Description: removed under reduced pressure in a rotary evaporator then under high vacuum to afford bis-formamide GB-209-3 as a colorless oil that solidified upon standing (5.2 mg, 96% yield).
Note: GB-209-3 was observed as four different amide rotamer ic species (estimated ratio = 54:35:7:4) under ambient conditions, complicating NMR spectroscopic analysis:
Isonitriles are known to be somewhat reactive functional groups. While previous studies […]
stability,3 we also wanted to account for the potential stomach-acid-catalyzed hydrolysis of the isonitriles in the course of in vivo experiments. We developed a mass spectrometric assay to understand the acid stability of the isonitriles with respect to hydrolysis to the corresponding formamides. […]
Supporting Table 1. a. Ionization (ES+) and b. inlet parameters for quantification of MED6-189 and formamides GB-209-2, and GB-209-3. […]
GB-209-2 and GB-209-3 were determined for each aliquot and plotted over time for respective pH values in the figure below describing the time course stability of MED6 -189 to conditions of varying pH over time via quantitative analysis of formamide products GB -209-2 and GB-209-3.
Time course stability of MED6 -189 to conditions of varying pH over time via quantitative analysis of formamide products GB -209-2 and GB-209-3. […]

[3] = tested on: HEK293; assay: Human cell line activity, HEK293; format: cell-based; conditions: HEK293, read-out: IC50 (µM) HEK293
[4] = tested on: erythrocytes; assay: Hemolytic activity assay (Giemsa smeared culture images); format: cell-based; conditions: concentrations up to 10 μM
Description: and two formamide derivatives.
2 and GB209-3 compounds tested after 48Hr and 72Hr drug incubation. […]

[5] = tested on: P. knowlesi YH1 human erythrocyte infecting parasites; assay: P. knowlesi in vitro IC50 assay (flow cytometry), human erythrocytes; format: cell-based; conditions: Plasmodium knowlesi
Description: Fig. 5. In vivo and broad-spectrum antimalarial efficacy of MED6-189. (A) The in vivo efficacy of MED6-189 was evaluated in a humanized mouse model infected with P. falciparum (blue) compared with untreated controls (black). […] The graphs illustrate the logarithmic growth of parasites (y axis) in response to varying drug concentrations (x axis). Error bars represent standard deviations from two independent experiments conducted in triplicate. The regression line is derived from a nonlinear regression analysis (variable slope with four parameters, least squares fit). (C) Proposed mode of action of MED6-189 in P. falciparum–infected erythrocytes. […]
Detailed information on materials and methods is available in the supplementary materials. […] P. knowlesi assays were quantitatively measured by flow cytometry using SYBR Green I and Mitrotracker Deep Red, as previously described ([84], [85]), on a Beckman Coulter CytoFLEX. […]
P. falciparum in vitro SYBR green fluorescence-based assays The anti-malarial activity of individual analogues were evaluated in-vitro against P. falciparum 3D7 (MRA-102, drug […]
green-I based fluorescence assay. Parasite growth rate and stages of development were determined via microscopy through Giemsa-stained smears of the cultures. […]

For `[C-]#[N+][C@]1(C)CC[C@H]2[C@@H]([C@@H](C(C)C)CC[C@]2(C)[N+]#[C-])[C@H]1O` [MED6-189], the “reduction in parasitemia in the peripheral blood” value [1] was greater than 90%, the “stability to aqueous acidic conditions (hydrolysis to formamides)” value [2] was “reasonable stability” and the IC50 [3] was 28 µM. The hemolytic activity [4] was “no hemolytic activity” and the IC50 [5] was 0.309 ± 0.042 µM.
